Experiment [1] addresses T1, Probable nicotinate-nucleotide adenylyltransferase (Staphylococcus aureus (strain N315), UniProt P65502). The class given is functional, Staphylococcus aureus subsp. aureus N315. Conditions: read-out: IC50_Mean.
The target in experiment [2] is T1, Probable nicotinate-nucleotide adenylyltransferase. The class given is functional, Staphylococcus aureus subsp. aureus N315.
In experiment [3] the test system is HEK293. The experiment is described as follows: NOD2 signaling inhibitors in MDP-stimulated cells, cell-based, uHTS, luminescence (AID 2001). The class given is functional. The conditions noted are these: Homo sapiens.
Experiment [4] deals with HEK293. Nature of the experiment: cells. The class given is functional, cell-based. The conditions noted are these: Homo sapiens.
Experiment [5] has as its target Dual specificity protein phosphatase 3 (Homo sapiens, UniProt P51452). The experiment is described as follows: VHR phosphatase inhibition, dose response, selectivity assay for STEP inhibitor project, biochemical (AID 602374). In kind it is functional. Conditions: read-out: IC50_Mean.
The target in experiment [6] is T2, Tyrosine-protein phosphatase non-receptor type 5 (Homo sapiens, UniProt P54829).
T2 sequence (P54829 whole entry): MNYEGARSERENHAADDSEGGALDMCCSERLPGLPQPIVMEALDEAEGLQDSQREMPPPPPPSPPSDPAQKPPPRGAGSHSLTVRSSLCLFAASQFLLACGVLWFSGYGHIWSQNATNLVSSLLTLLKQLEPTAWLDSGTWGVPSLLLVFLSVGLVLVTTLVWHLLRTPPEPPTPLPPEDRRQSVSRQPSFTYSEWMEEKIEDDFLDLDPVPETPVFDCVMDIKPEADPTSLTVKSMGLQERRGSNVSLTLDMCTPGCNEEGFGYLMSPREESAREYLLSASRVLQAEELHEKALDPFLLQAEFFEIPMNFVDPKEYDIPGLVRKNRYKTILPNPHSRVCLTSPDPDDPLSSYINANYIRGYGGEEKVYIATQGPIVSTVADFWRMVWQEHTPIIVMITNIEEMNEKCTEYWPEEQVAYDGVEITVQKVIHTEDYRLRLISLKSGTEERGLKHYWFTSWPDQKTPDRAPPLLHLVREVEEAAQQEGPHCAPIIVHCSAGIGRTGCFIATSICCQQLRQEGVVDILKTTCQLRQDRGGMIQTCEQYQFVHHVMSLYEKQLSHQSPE
Nature of the experiment: STEP phosphatase inhibitors, confirmation, biochemical, fluorescence intensity, uHTS hits (AID 602372). The class given is functional. Conditions: read-out: IC50_Mean.

Another experiment has as its target T3, Caspase-6 (Homo sapiens, UniProt P55212).
T3 sequence (P55212 whole entry): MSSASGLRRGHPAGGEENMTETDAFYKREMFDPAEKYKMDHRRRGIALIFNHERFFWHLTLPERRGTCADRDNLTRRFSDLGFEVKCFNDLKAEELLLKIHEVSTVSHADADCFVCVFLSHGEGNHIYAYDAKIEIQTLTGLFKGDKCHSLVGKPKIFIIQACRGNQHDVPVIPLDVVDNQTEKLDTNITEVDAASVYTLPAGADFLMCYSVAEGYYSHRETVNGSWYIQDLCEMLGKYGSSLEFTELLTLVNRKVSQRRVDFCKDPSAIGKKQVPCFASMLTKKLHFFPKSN
The experiment is described as follows: human caspase-6 inhibitors, dose response, biochemical, VEID-R110 fluorescence, cherry-pick (AID 720632).

For experiment [7], the target named is Nucleotide-binding oligomerization domain-containing protein 2 (Homo sapiens, UniProt Q9HC29). Nature of the experiment: NOD2 signaling inhibitors, cell-based, luminescence, uHTS, HEK293 (AID 1566). In kind it is functional.
Experiment [8] deals with T4, Carboxy-terminal domain RNA polymerase II polypeptide A small phosphatase 1 (Homo sapiens, UniProt Q9GZU7).
T4 sequence (Q9GZU7 whole entry): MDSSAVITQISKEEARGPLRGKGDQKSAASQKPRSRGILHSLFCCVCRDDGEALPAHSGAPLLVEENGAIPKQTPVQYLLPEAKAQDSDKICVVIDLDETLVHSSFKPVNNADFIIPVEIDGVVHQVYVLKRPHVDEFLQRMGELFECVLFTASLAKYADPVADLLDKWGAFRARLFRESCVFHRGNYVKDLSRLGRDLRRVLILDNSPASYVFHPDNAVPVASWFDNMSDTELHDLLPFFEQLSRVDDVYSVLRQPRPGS
The experiment is described as follows: inhibitors of CTDSP1, concentration-response testing, biochemical assay, absorbance-based, actives from ultra-high-throughput screening (AID 540297). The class given is functional.

Experiment [9] relates to HEK293. Nature of the experiment: cells. In kind it is functional, cell-based. The conditions noted are these: Homo sapiens. This is another data set of the same source.
For experiment [10], the target named is T5, Small ubiquitin-related modifier 1 (Homo sapiens, UniProt P63165). The experiment is described as follows: inhibitors of SUMO1 peptide binding, dose response, biochemical, fluorescence polarization, uHTS hits (AID 624382). In kind it is functional. The conditions noted are these: read-out: IC50_Mean.
Experiment [11] relates to HEK293. The experiment is described as follows: NOD1 signaling inhibitors, primary screen, cell-based, luminescence, uHTS (AID 1578). The conditions noted are these: Homo sapiens. The class given is functional.
The target in experiment [12] is T6, Tyrosine-protein phosphatase non-receptor type 11 (Homo sapiens, UniProt Q06124).
T6 sequence (Q06124 whole entry): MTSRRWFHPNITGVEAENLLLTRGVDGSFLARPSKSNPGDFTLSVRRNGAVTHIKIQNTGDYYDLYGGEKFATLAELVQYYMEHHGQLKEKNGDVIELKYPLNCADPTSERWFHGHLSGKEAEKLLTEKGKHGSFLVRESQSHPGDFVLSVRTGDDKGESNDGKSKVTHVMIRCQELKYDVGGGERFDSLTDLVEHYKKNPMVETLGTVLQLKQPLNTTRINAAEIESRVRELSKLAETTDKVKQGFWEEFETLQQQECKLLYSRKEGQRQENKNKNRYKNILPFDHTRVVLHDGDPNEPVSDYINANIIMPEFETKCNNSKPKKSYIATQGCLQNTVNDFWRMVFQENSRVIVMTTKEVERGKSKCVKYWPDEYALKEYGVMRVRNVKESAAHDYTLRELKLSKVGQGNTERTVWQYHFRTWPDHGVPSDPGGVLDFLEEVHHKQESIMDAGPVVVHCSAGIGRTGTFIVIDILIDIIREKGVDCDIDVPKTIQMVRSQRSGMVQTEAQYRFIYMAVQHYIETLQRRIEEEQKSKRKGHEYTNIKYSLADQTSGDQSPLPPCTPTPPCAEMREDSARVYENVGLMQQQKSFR
The experiment is described as follows: SHP2 phosphatase inhibition, dose response, selectivity assay for STEP inhibitor project, biochemical (AID 602367). The conditions noted are these: read-out: IC50_Mean. In kind it is functional.

Another experiment concerns the target Caspase-8 (Homo sapiens, UniProt Q14790). Nature of the experiment: caspase-8 inhibition counter-screen, dose response, selectivity assay for caspase-6 inhibitor project, biochemical, Z-IETD-R110 fluorescence, cherry-picked samples (AID 743294). On the technique in general: The purpose of a counterscreen is to sort out artefacts and off-target activity.
In experiment [13] the target is T7, Low molecular weight phosphotyrosine protein phosphatase (Homo sapiens, UniProt P24666).
T7 sequence (P24666 whole entry): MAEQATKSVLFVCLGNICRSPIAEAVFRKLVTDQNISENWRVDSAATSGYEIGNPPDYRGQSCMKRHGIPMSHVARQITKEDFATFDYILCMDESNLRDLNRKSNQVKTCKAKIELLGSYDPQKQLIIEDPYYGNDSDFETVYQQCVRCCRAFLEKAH
In kind it is functional. The conditions noted are these: read-out: IC50_Mean.

The target of experiment [14] is T5, Small ubiquitin-related modifier 1. Nature of the experiment: inhibitors of SUMO1 partner interactions, dose response, biochemical, FRET (AID 624383). The class given is functional. The conditions noted are these: read-out: IC50_Mean.
Experiment [15] has as its target T7, Low molecular weight phosphotyrosine protein phosphatase. In kind it is functional. The conditions noted are these: read-out: IC50_Mean. The source holds these as a separate data set.

Structures are written as SMILES. The source made the active and inactive calls.

These results are taken from ChEMBL document CHEMBL1201862, “PubChem BioAssay data set” (2004).

Broadly, the AC50 is the midpoint of the concentration-response curve, whichever way the signal moves. As usually defined, the EC50 is the concentration needed to bring the measured effect to its halfway point.

T5 sequence (P63165 whole entry): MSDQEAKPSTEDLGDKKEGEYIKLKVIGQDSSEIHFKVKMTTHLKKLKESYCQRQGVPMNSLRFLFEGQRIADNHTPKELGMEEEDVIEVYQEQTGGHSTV
T1 sequence (P65502 whole entry): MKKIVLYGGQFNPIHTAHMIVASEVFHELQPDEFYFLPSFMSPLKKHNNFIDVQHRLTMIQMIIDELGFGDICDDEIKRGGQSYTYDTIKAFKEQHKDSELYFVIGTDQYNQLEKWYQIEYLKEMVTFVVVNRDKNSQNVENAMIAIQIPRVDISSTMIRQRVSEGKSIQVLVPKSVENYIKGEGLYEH
Sequence of Caspase-8 (Q14790 217-374 limits assumed): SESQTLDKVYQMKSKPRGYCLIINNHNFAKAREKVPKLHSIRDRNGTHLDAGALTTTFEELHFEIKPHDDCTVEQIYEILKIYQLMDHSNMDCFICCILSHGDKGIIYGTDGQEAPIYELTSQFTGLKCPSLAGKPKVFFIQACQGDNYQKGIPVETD
Sequence of Caspase-8 (Q14790 385-479 limits assumed): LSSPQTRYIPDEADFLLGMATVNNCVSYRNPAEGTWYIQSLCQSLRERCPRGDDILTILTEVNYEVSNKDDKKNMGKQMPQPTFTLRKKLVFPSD
Sequence of Nucleotide-binding oligomerization domain-containing protein 2 (Q9HC29 whole entry, the tested form may be a part): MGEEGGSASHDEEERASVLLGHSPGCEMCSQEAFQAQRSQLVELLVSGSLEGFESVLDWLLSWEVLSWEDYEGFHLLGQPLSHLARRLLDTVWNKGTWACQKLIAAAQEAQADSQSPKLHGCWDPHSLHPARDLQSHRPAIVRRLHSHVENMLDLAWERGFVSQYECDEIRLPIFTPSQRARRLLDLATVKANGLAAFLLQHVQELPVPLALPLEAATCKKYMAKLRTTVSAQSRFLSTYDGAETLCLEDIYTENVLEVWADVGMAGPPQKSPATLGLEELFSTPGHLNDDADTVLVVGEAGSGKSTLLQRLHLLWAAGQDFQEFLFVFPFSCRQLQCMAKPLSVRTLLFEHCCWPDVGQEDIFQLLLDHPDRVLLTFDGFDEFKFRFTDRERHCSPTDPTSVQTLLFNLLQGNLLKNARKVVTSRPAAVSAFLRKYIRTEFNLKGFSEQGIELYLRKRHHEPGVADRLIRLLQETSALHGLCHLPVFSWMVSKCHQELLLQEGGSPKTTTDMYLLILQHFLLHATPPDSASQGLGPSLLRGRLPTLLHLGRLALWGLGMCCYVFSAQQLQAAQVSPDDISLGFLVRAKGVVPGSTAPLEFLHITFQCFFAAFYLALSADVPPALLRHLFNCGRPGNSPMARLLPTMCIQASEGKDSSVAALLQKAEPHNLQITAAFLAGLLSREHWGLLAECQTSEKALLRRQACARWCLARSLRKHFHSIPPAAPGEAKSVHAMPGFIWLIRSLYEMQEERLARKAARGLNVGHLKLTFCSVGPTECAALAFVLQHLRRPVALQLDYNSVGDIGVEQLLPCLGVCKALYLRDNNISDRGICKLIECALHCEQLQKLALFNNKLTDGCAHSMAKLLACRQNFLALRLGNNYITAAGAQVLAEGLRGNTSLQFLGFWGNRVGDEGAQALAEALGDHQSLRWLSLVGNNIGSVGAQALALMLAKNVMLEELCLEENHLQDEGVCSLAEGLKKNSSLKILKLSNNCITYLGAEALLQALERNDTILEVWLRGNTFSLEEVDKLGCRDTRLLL
Sequence of Dual specificity protein phosphatase 3 (P51452 whole entry): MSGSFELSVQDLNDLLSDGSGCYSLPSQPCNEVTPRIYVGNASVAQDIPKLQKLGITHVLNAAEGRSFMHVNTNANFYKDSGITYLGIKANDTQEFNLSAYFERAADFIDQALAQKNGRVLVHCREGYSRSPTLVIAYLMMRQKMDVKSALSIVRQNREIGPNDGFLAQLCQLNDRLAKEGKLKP

Consider `Cc1ccc(-c2cc(C(=O)Nc3ccc(S(=O)(=O)Nc4onc(C)c4C)cc3)c3ccccc3n2)cc1`, for which the IC50 in [1] is 20.1 µM (active); in experiment [2] it was 5.56 µM (active).

Regarding `Cc1c(CCC(=O)O)c(=O)oc2c(C)c(OCc3ccccc3Cl)ccc12`, the IC50 in the experiment with HEK293 [3] was > 20 µM (inactive); with HEK293 [4], > 20 µM (inactive); in [5], 1.56 µM (active); in experiment [6], 2.94 µM (active); in experiment [8] it was 1.99 µM (active); in the experiment with HEK293 [9], 9.68 µM (active). Further, the IC50 was > 66.6 µM (inactive) in experiment [10]; 1.55 µM (active) in [12]; 6.36 µM (active) in [13]; 9.18 µM (active) in experiment [14]; 4.25 µM (active) in experiment [15]. Moreover, the concentration at half-maximal activity (AC50) on Caspase-6 was 1.38 µM (active); at Caspase-8, > 70 µM (inactive). Moreover, the EC50 was 2.94 µM (active) in experiment [7] and > 20 µM (inactive) with HEK293 [11].
